The results in this text go back to ChEMBL document CHEMBL1268929, “Design, synthesis, and evaluation of an α-tocopherol analogue as a mitochondrial antioxidant” (2010).

Each structure is given as a SMILES string. Activity calls are given as the source filed them. No cut-off for these calls is given here.

One assay relates to CCRF-CEM. Kind of assay: Antioxidant activity against diethyl maleate-induced intracellular ROS accumulation in human CEM cells at 5 uM pretreated for 1 hr before diethyl maleate challenge measured after 30 mins by flow cytometry. Format: functional. (In flow cytometry, cells or beads pass a laser one at a time.)
The species named for a further assay is Bos taurus. Kind of assay: Antioxidant activity against AAPH-induced lipid peroxidation in bovine heart mitochondrial membrane at 50 uM by spectrofluorimetric analysis. Format: functional. The following applies: Mitochondria.

Regarding `Cc1c(C)c2c(c(C)c1O)CC[C@@](C)(CCC[C@H](C)CCC[C@H](C)CCCC(C)C)O2` [ALPHA-TOCOPHEROL], the Activity with CCRF-CEM is 65%. Consider `Cc1nc2c(c(C)c1O)CCN2C`, for which, in the assay with CCRF-CEM, the Activity is recorded as 75%. With `Cc1nc2c(c(CC[C@](C)(O)CCC[C@H](C)CCC[C@H](C)CCCC(C)C)c1O)CCN2C`, in the assay filed under Bos taurus, the result was Active. Moreover, the Activity with CCRF-CEM was determined as 2%.
